Here are results for six compounds from paper PMC4051119, “Bacterial actin MreB forms antiparallel double filaments” (eLife, 2014).

“And” between values parts separate entries of the source, which are not always exact repeats. Equal entries are not always repeated. Where two headings read alike, the source gives them in different places.

One assay concerns cell morphology. Further details: method as in earlier work. The note with it: ref Iwai et al., 2002; Gitai et al., 2005; Bean et al., 2009; Takacs et al., 2010; cited from earlier work.
A further assay has as its target T1, ΔCcMreBdh (Caulobacter vibrioides, UniProt A0A0H3C7V4, F102S/V103G).
T1 construct: added initiator Met (M before I9) (N); made in house; host or cells: E. coli C41(DE3) (printed for the sister construct ΔCcMreBh)
The assay can be described thus: Isothermal titration calorimetry of nucleotides and MP265 binding to MreB. Further details: species or system Caulobacter crescentus. The following applies: ITC. Here is the method: […] Samples were stored by the instrument in 96-well microtitre plates at 5°C prior to loading and performing the ITC titrations. […] Heat from the pre-injection was not used during fitting. Data were analysed manually in the Origin software package provided by the manufacturer and fit to a single set of binding sites model. […] The small endothermic heats of each injection in these experiments were fitted to a simple linear function that was subsequently subtracted from the equivalent integrated heats of the experiment when protein was present.
A general note: ITC needs no label: the signal is the heat of the interaction.

[1] abbreviates: 25°C, ligand titrated into ΔCcMreBdh alone, read-out: Kd.
Where [2] appears, read: 25°C, ligand titrated into ΔCcMreBdh alone.

T1 sequence (A0A0H3C7V4 9-347 F102S/V103G): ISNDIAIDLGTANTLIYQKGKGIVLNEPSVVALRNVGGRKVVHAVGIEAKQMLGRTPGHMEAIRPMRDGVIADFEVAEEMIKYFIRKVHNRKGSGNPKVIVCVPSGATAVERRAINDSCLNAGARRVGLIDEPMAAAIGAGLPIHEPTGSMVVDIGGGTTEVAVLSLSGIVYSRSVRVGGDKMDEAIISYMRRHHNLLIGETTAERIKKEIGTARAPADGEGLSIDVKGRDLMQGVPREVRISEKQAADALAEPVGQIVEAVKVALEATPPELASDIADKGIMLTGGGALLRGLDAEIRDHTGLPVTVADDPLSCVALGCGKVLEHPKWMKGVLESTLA

On to `N=C(N)SCc1ccc(Cl)cc1` [MP265], for which the “effect on cell morphology” value in the assay on cell morphology is reported as “perturb cell morphology reminiscent of an MreB knock-out”. Further, the Kd is 0.6 µM at ΔCcMreBdh (15°C, in the presence of 0.5 mM ADP, data not shown, read-out: affinity (Kd)); 0.7 µM on ΔCcMreBdh (15°C, in the presence of 0.5 mM AMPPNP, data not shown, read-out: affinity (Kd)); 19 µM on ΔCcMreBdh (15°C, ΔCcMreBdh alone, data not shown, read-out: affinity (Kd)); 1.3 µM on ΔCcMreBdh (25°C, in the presence of 0.5 mM ADP, read-out: Kd); 1.7 µM on ΔCcMreBdh (25°C, in the presence of 0.5 mM AMPPNP, read-out: Kd); ~27 µM and 26 µM and 27 µM at ΔCcMreBdh (setting [1]). In addition, the ΔH was -12 kcal/mol at ΔCcMreBdh (25°C, in the presence of 0.5 mM ADP) and -11 kcal/mol at ΔCcMreBdh (25°C, in the presence of 0.5 mM AMPPNP). In addition, on ΔCcMreBdh (with nucleotide versus ΔCcMreBdh alone), the “increase of binding affinity in the presence of di- and trinucleotide phosphates” value is 20–30 fold.
On ΔCcMreBdh (setting [2]), `Nc1ncnc2c1ncn2[C@@H]1O[C@H](COP(=O)(O)OP(=O)(O)O)[C@@H](O)[C@H]1O` [ADP] had a ΔH of -5.3 kcal/mol. Moreover, the Kd at ΔCcMreBdh (setting [1]) was ~4 µM and 4 µM.
At ΔCcMreBdh (setting [2]), `Nc1ncnc2c1ncn2[C@@H]1O[C@H](COP(=O)(O)OP(=O)(O)OP(=O)(O)O)[C@@H](O)[C@H]1O` [ATP] gave a ΔH of -6.0 kcal/mol. At ΔCcMreBdh (setting [1]), the Kd was ~1 µM and 1 µM.
For `N=C(N)SCc1ccc(Cl)c(Cl)c1` [A22, S-(3,4-dichlorobenzyl) isothiourea], in the assay on cell morphology, the “effect on cell morphology” value is listed as “perturb cell morphology reminiscent of an MreB knock-out”.
As to `Nc1ncnc2c1ncn2[C@@H]1O[C@H](CO[P@](=O)(O)O[P@](=O)(O)O[P@@](=O)(O)S)[C@@H](O)[C@H]1O` [ATPγS], the ΔH at ΔCcMreBdh (setting [2]) is -7.7 kcal/mol. For the same compound, at ΔCcMreBdh (Kd, 25°C, ligand titrated into ΔCcMreBdh alone), the Kd was ~4.6 µM and 4.5 µM.
Consider `Nc1ncnc2c1ncn2[C@@H]1O[C@H](COP(=O)(O)OP(=O)(O)NP(=O)(O)O)[C@@H](O)[C@H]1O` [AMPPNP], for which, on ΔCcMreBdh (setting [2]), the ΔH was -4.4 kcal/mol. Moreover, at ΔCcMreBdh (setting [1]), the Kd is ~65 µM and 65 µM.

What is called Kd is the equilibrium constant for the complex coming apart.
